Literature values as cited in patent US20210353513A1, “STABILIZED OIL-IN-WATER EMULSION” (priority 2018, published 2021).

CCCCCCCCCC(=O)OCC(COC(=O)CCCCCCCCC)OC(=O)CCCCCCCCC [Tricaprin (s, β), Tricaprin]
Density (g/cm^3) at 20° C.: 1.05 g/mL
